PMC4950264 (Molecular Ecology, 2016)

Biological target: T1, CYP6Z1 (Anopheles funestus, UniProt Z9NKG6IF05)
T1 sequence (Z9NKG6IF05 1-492): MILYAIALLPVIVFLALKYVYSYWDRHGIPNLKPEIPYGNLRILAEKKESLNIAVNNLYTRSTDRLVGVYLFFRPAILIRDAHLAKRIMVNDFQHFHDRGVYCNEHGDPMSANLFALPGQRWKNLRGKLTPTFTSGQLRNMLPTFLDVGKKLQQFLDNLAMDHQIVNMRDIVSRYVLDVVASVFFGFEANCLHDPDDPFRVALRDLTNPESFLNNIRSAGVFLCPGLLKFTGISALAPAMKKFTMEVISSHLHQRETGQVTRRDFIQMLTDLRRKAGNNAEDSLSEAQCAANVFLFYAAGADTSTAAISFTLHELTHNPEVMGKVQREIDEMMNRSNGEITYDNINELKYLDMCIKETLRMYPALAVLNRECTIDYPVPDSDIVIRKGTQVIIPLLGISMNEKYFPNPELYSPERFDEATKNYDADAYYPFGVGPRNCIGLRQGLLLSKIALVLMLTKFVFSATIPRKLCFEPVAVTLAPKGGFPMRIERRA

Row | SMILES | IC50 [µM]
1 | Clc1ccc(C(c2ccc(Cl)cc2)C(Cl)(Cl)Cl)cc1 [DDT] | 8.9
2 | CNC(=O)Oc1cccc2c1OC(C)(C)O2 [bendiocarb] | 9.5
